Assay results published in ChEMBL document CHEMBL1144506, “Fujita-Ban QSAR analysis and CoMFA study of quinoline antagonists of immunostimulatory CpG-oligodeoxynucleotides” (Bioorg Med Chem, 2007).
Where “and” joins values, the source holds several entries; their conditions need not be identical. Identical values can stand only once.

Each molecule was assayed on WEHI (assay: Inhibition of CpG-oligodeoxynucleotides-induced immunostimulation in mouse WEHI 231 cells). Conditions: Mus musculus, WEHI.
Type: functional, cell-based

| EC50 [nM] | Compound |
| --- | --- |
| 1.91 | CN(C)CCCCCCNc1cc(-c2ccc(N3CCN(C)CC3)cc2)nc2ccccc12 |
| 186 | Cc1ccccc1-c1cc(NCCCN(C)C)c2ccccc2n1 |
| 100 | CN1CCN(Cc2cccc(-c3cc(N4CCN(C)CC4)c4ccccc4n3)c2)CC1 |
| 0.759 | CN(C)CCNc1cc(-c2ccc(N3CCN(C)CC3)cc2)nc2ccccc12 |
| 4.9 | CN1CCN(CCCCNc2cc(-c3ccc(N4CCN(C)CC4)cc3)nc3ccccc23)CC1 |
| 13.2 | CN(C)CCNc1cc(-c2ccccc2N2CCN(C)CC2)nc2ccc(F)cc12 |
| 38.9 | CN(C)CCNc1cc(-c2ccccc2N2CCN(C)CC2)nc2ccccc12 |
| 12 | c1cc(CNCCCN2CCOCC2)cc(-c2cc(NCCN3CCOCC3)c3ccccc3n2)c1 |
| 35.5 | COc1ccc(-c2cc(NCCN(C)C)c3ccccc3n2)cc1F |
| 72.4 | Cc1cccc(-c2cc(NCCN(C)C)c3ccccc3n2)c1 |
| 26.9 | Cc1ccc(-c2cc(NCCCN3CCOCC3)c3ccccc3n2)cc1 |
| 1.74 | CN1CCN(Cc2cc(Nc3cc(-c4ccc(F)cc4)nc4ccccc34)cc(CN3CCN(C)CC3)c2O)CC1 |
| 15.8 | CN1CCN(CCCCNc2cc(-c3ccc(F)cc3)nc3ccccc23)CC1 |
| 155 | CN(C)CCCNCc1cccc(-c2cc(NCCN3CCOCC3)c3ccccc3n2)c1 |
| 417 | Fc1ccc(-c2cc(NCCN3CCOCC3)c3ccccc3n2)cc1 |
| 13.2 | Cc1cccc(-c2cc(NCCCN(C)C)c3ccccc3n2)c1 |
| 282 | CN(C)CCNc1cc(-c2cccc(F)c2)nc2ccc(F)cc12 |
| 14.1 | Cc1cccc(-c2cc(NCCC3CCCN3C)c3ccccc3n2)c1 (stereo not drawn) |
| 105 | Cc1ccc(-c2cc(NCCCN3CCCC3)c3ccccc3n2)cc1 |
| 132 | CN1CCN(c2ccccc2-c2cc(N3CCN(C)CC3)c3ccccc3n2)CC1 |
| 22.4 | CCN(CC)CCNc1cc(-c2cccc(C)c2)nc2ccccc12 |
| 13.5 | c1ccc2cc(-c3cc(NCCCN4CCCC4)c4ccccc4n3)ccc2c1 |
| 155 | CN(C)CCNc1cc(-c2ccc(C(F)(F)F)cc2)nc2ccccc12 |
| 6.46 | CN(C)CCNc1ccccc1-c1cc(NCCN(C)C)c2ccccc2n1 |
| 3.72 | CN(C)CCCCNc1cc(-c2ccc3ccccc3c2)nc2ccccc12 |
| 1.51 | CN1CCN(CCNc2cc(-c3ccc(N4CCN(C)CC4)cc3)nc3ccccc23)CC1 |

| EC50 [nM] | Compound |
| --- | --- |
| 15.8 | CN(C)CCCNc1cc(-c2ccc(N3CCCCC3)cc2)nc2ccccc12 |
| 5.37 | CN(C)CCNc1cc(-c2ccc(N3CCCCC3)cc2)nc2ccccc12 |
| 20.9 | Fc1ccc(-c2cc(NCCCCN3CCCC3)c3ccccc3n2)cc1 |
| 20.4 | CN(C)CCCNc1cc(-c2cccc(CNCCN3CCOCC3)c2)nc2ccccc12 |
| 9.12 | CN(C)CCNc1cc(-c2ccc3ccccc3c2)nc2ccccc12 |
| 15.5 | CN(C)CCCCCNc1cc(-c2ccc(F)cc2)nc2ccccc12 |
| 1.78 | Cc1ccc(-c2cc(Nc3cc(CN4CCCC4)c(O)c(CN4CCCC4)c3)c3ccccc3n2)cc1 |
| 7.76 | CN1CCN(Cc2cccc(-c3cc(NCCC4CCCN4C)c4ccccc4n3)c2)CC1 (stereo not drawn) |
| 5.89 | CN(C)CCCCNc1cc(-c2ccccc2NCCN(C)C)nc2ccccc12 |
| 13.2 | CN1CCCC1CCNc1cc(-c2ccc(F)cc2)nc2ccccc12 (stereo not drawn) |
| 27.5 | Cc1cccc(-c2cc(NCCCN3CCN(C)CC3)c3ccccc3n2)c1 |
| 316 | Oc1ccc(Nc2cc(-c3ccc4ccccc4c3)nc3ccccc23)cc1 |
| 11.5 | Cc1ccc(-c2cc(NCCCN(C)C)c3ccccc3n2)cc1 |
| 204 | CN1CCCC1CCNc1cc(-c2ccccc2F)nc2ccccc12 (stereo not drawn) |
| 3.98 | CN(C)CCCNc1cc(-c2cccc(CN3CCN(C)CC3)c2)nc2ccccc12 |
| 13.8 | Cc1cccc(-c2cc(NCCCCN(C)C)c3ccccc3n2)c1 |
| 0.24 | CN1CCN(Cc2cc(Nc3cc(-c4ccc5ccccc5c4)nc4ccccc34)cc(CN3CCN(C)CC3)c2O)CC1 |
| 9.12 | CN(C)CCCNc1cc(-c2ccc(CN3CCN(C)CC3)cc2)nc2ccccc12 |
| 490 | Cc1ccc(-c2cc(NCCN3CCOCC3)c3ccccc3n2)cc1 |
| 1.45 | CN(C)CCNc1cc(-c2ccc(N3CCN(C)CC3)cc2)nc2ccc(Cl)cc12 |
| 468 | CN(C)CCNc1cc(-c2ccccc2Cl)nc2ccc(Cl)cc12 |
| 20.4 | CN(C)CCCCCCNc1cc(-c2ccc(F)cc2)nc2ccccc12 |
| 107 | CN(C)CCCCNc1cc(-c2ccccc2F)nc2ccccc12 |
| 6.46 | CN(C)CCNc1cc(-c2ccc3ccccc3c2)nc2ccc(-c3ccccc3)cc12 |
| 646 | Cc1cccc(-c2cc(NCCN3CCOCC3)c3ccccc3n2)c1 |
| 2 | CN1CCN(c2ccc(-c3cc(NCCC4CCCN4C)c4ccccc4n3)cc2)CC1 (stereo not drawn) |

| EC50 [nM] | Compound |
| --- | --- |
| 151 | Cc1ccc(-c2cc(Nc3ccc(O)cc3)c3ccccc3n2)cc1 |
| 107 | CN(C)CCCNc1cc(-c2ccccc2F)nc2ccccc12 |
| 2.4 | CN1CCN(c2ccc(-c3cc(NCCN4CCCC4)c4ccccc4n3)cc2)CC1 |
| 18.6 | CCN(CC)CCNc1cc(-c2ccc(C)cc2)nc2ccccc12 |
| 3.24 | CN1CCN(Cc2ccc(-c3cc(NCCN4CCCC4)c4ccccc4n3)cc2)CC1 |
| 1.45 | CN(C)CCCCCNc1cc(-c2ccc(N3CCN(C)CC3)cc2)nc2ccccc12 |
| 407 | COc1ccc(-c2cc(NCCN(C)C)c3ccc(C(F)(F)F)cc3n2)cc1F |
| 646 | Cc1ccccc1-c1cc(NCCCN2CCOCC2)c2ccccc2n1 |
| 141 | COc1ccc(C2C=C(NCCN(C)C)c3cc(F)ccc3N2)c(F)c1 (stereo not drawn) |
| 191 | Fc1ccc(-c2cc(NCCCN3CCCC3)c3ccccc3n2)cc1 |
| 7.08 | CN(C)CCNc1cc(-c2ccc(CN3CCN(C)CC3)cc2)nc2ccccc12 |
| 1.23 | CN(C)CCCCNc1cc(-c2ccc(N3CCN(C)CC3)cc2)nc2ccccc12 |
| 1.45 | Cc1ccc(-c2cc(Nc3cc(CN4CCN(C)CC4)c(O)c(CN4CCN(C)CC4)c3)c3ccccc3n2)cc1 |
| 195 | Cc1cccc(-c2cc(NCCCN3CCCC3)c3ccccc3n2)c1 |
| 51.3 | CN(C)CCNc1cc(-c2ccc(F)cc2)nc2ccccc12 |
| 2.19 | CN1CCN(c2ccc(-c3cc(NCCCN4CCOCC4)c4ccccc4n3)cc2)CC1 |
| 407 | CN(C)CCNc1cc(-c2ccc(C(F)(F)F)cc2)nc2ccc(F)cc12 |
| 2.69 | CN1CCN(c2ccc(-c3cc(N4CCN(C)CC4)c4ccccc4n3)cc2)CC1 |
| 5.5 | CN1CCN(c2ccc(-c3cc(NCCCCN4CCCC4)c4ccccc4n3)cc2)CC1 |
| 5.89 | CN(C)CCCCCCNc1cc(-c2ccc3ccccc3c2)nc2ccccc12 |
| 46.8 | CN(C)CCCCNc1cc(-c2ccc(N3CCCCC3)cc2)nc2ccccc12 |
| 21.9 | CCN1CCCC1CNc1cc(-c2cccc(C)c2)nc2ccccc12 (stereo not drawn) |
| 79.4 | COc1ccc(-c2cc(NCCN(C)C)c3cc(F)ccc3n2)cc1F |
| 18.6 | CN1CCN(CCNc2cc(-c3ccc(F)cc3)nc3ccccc23)CC1 |
| 58.9 | CN1CCN(Cc2ccc(-c3cc(N4CCN(C)CC4)c4ccccc4n3)cc2)CC1 |
| 162 | CN(C)CCNc1cc(-c2ccccc2Cl)nc2ccccc12 |

| EC50 [nM] | Compound |
| --- | --- |
| 1.15 | Oc1c(CN2CCCC2)cc(Nc2cc(-c3ccc4ccccc4c3)nc3ccccc23)cc1CN1CCCC1 |
| 741 | CN1CCN(c2cc(-c3ccc4ccccc4c3)nc3ccc(-c4ccccc4)cc23)CC1 |
| 52.5 | CN(C)CCCNc1cc(-c2cccc(CNCCCN3CCOCC3)c2)nc2ccccc12 |
| 2.04 | CN1CCCC1CCNc1cc(-c2ccc3ccccc3c2)nc2ccccc12 (stereo not drawn) |
| 3.55 | c1ccc2cc(-c3cc(NCCCN4CCOCC4)c4ccccc4n3)ccc2c1 |
| 120 | CN1CCN(Cc2cccc(-c3cc(NCCCN4CCCC4)c4ccccc4n3)c2)CC1 |
| 417 | CN(C)CCNc1cc(-c2ccccc2F)nc2ccc(F)cc12 |
| 1 | CN(C)CCCNc1cc(-c2ccc(N3CCN(C)CC3)cc2)nc2ccccc12 |
| 24 | Fc1ccc(-c2cc(NCCN3CCCC3)c3ccccc3n2)cc1 |
| 11 | CN(C)CCCNc1cc(-c2ccc3ccccc3c2)nc2ccccc12 |
| 5.37 | CCN1CCCC1CNc1cc(-c2ccc3ccccc3c2)nc2ccccc12 (stereo not drawn) |
| 525 | CN(C)CCCNCc1cccc(-c2cc(NCCCN3CCN(C)CC3)c3ccccc3n2)c1 |
| 537 | c1cc(CNCCN2CCOCC2)cc(-c2cc(NCCCN3CCCC3)c3ccccc3n2)c1 |
| 6.76 | CN1CCN(CCCNc2cc(-c3ccc(CN4CCN(C)CC4)cc3)nc3ccccc23)CC1 |
| 12.3 | Cc1ccc(-c2cc(NCCN(C)C)c3ccccc3n2)cc1 |
| 52.5 | CN(C)CCNc1cc(-c2ccc(F)cc2)nc2ccc(Cl)cc12 |
| 550 | CN(C)CCNc1cc(-c2cccc(F)c2)nc2cc(C(F)(F)F)ccc12 |
| 67.6 | Fc1ccc(-c2cc(NCCCN3CCOCC3)c3ccccc3n2)cc1 |
| 21.9 | CCN1CCCC1CNc1cc(-c2ccc(C)cc2)nc2ccccc12 (stereo not drawn) |
| 13.8 | Cc1ccc(-c2cc(NCCCN3CCN(C)CC3)c3ccccc3n2)cc1 |
| 17 | CCN1CCCC1CNc1cc(-c2ccc(F)cc2)nc2ccccc12 (stereo not drawn) |
| 490 | CN(C)CCNc1cc(-c2ccc(F)cc2)nc2cc(C(F)(F)F)ccc12 |
| 3.31 | CN1CCN(c2ccc(-c3cc(NCCN4CCOCC4)c4ccccc4n3)cc2)CC1 |
| 50.1 | Cc1cccc(-c2cc(NCCCN3CCOCC3)c3ccccc3n2)c1 |

Same assay, conditions: wehi

| Log EC50 | Compound |
| --- | --- |
| -8.26 and -7.76 | CN(C)CCCCNc1cc(-c2ccc(F)cc2)nc2ccccc12 |
